Data set [1] can be described thus: Exposure in animal toxicology studies. As to conditions: in vivo, read-out: AUC, maximum level observed. As for the experimental part: Maximum dose level is capped at 2400 mg/day (Dose Level 8) corresponding to closest highest level achieved in animal studies. […] Intrapatient dose escalation is permissible if a dose level has been cleared.
Data set [2] can be described thus: GLP toxicity study in dogs. Type of data set: in vivo. As to conditions: for Toxicity: Beagles, top dose 42 mg/kg. An excerpt:
(§1) Toxicity studies in rats and dogs at doses equivalent to 10× that dose have not shown toxicity at 10 or 21 days.

For data set [3], the target named is T1, ribonucleotide reductase (Homo sapiens, UniProt P31350).
T1 construct: from tissue; host or cells: MOLT-4 subcutaneous tumour xenografts from mice dosed orally with COH29
The data set is described as follows: RNR activity and dNTP pools in MOLT-4 tumor xenografts. Type of data set: in vivo, mouse. Particulars: MOLT-4 xenografts. As for the experimental part:
(§2) FIGS. 12A-12D depict the activity of COH29 in mouse xenografts. Cancer cells were implanted and allowed to grow at the subcutaneous site until the tumor was measurable. Subcutaneous xenograft growth curves for leukemic-(MOLT-4) mice treated for 12 days with oral COH29 in twice-daily dosing at 50 and 100 mg/kg (FIG. 12A) and for ovarian cancer bearing mice (TOV112D) treated for 7 days with 200, 300, or 400 mg/kg of oral COH29 (FIG. 12B) (shown are the average±SDs for 4 animals/group). FIG. 12C depicts the activity of RNR in MOLT-4 tumor xenografts from mice treated with vehicle (solutol-15) or 100 mg/kg of oral COH29 for 12 days. FIG. 12D depicts the effect of oral COH29 on intratumoral dTNP pools from MOLT-4 tumor xenografts.

Data set [4] deals with human cancer cells resistant to gemcitabine, hydroxyurea or cisplatin. The data set is described as follows: Growth of drug-resistant human cancer cells. Type of data set: cell-based. Particulars: KB-Gem, KBHURs and others, 72 h. How it is done: FIGS. 11A-11B depict the activity of COH29 in gemcitabine (KB-Gem) (FIG. 11A) and hydroxyurea (KBHURs) (FIG. 11B) resistant cell lines in 72 h toxicity assay. Hydroxyurea (concentration 2-50 mmol/L), gemcitabine (concentration 20-500 μmon), and COH29 (concentration 2-250 μmon) were used for real-time growth curves for KBHUR and gemcitabine, respectively, based on comparison of 72-h viability of hydroxyurea-resistant or gemcitabine-resistant cells to COH29.

Data set [5] is described as follows: GLP toxicity study in rats. The format is in vivo. Particulars: for Toxicity: Sprague-Dawley rats, top dose 125 mg/kg.
From the text: as §1

Data set [6] concerns tumor xenografts. Kind of data set: Pilot tumor xenograft study. Type of data set: in vivo. As to conditions: daily oral administration, IL2-rg(KO)/NOD-Scid mice.
From the text: as §1

Data set [7] concerns MOLT-4 xenograft tumors. The data set is described as follows: MOLT-4 mouse xenograft. Particulars: MOLT-4, oral twice daily 50 and 100 mg/kg, 12 days. The format is in vivo. As for the experimental part:
as §2

The subject of data set [8] is TOV112D xenograft tumors. The data set is described as follows: TOV112D mouse xenograft. The format is in vivo. As to conditions: oral 200, 300 or 400 mg/kg, 7 days. How it is done: as §2
Data set [9] deals with PARP1. The data set is described as follows: PARP1 protein expression by Western blot. Type of data set: cell-based, human. As for the experimental part:
FIGS. 3A-3B. […] (FIG. 3A): the effect of COH29 on PARP1 activity in isogenic pairs of breast (HCC1937) and ovarian (UWB1.289) cancer cell lines expressing mutant or wt BRCA1 (wt=+BRCA1 in each case) was assessed in duplicate using procedures described in Materials & Methods; FIG. 3B: the effect of COH29 on PARP1 protein expression in the isogenic HCC1937/HCC1937+BRCA1 cell lines was assessed by Western blot analysis using anti-human PARP1 antibody as the primary antibody. Loading control is β-actin.
For subcellular fractionation, cells were trypsinized and washed with cold PBS solution twice. […] Following centrifugation at 1,000 g for 5 min, the supernatant was collected (i.e., cytoplasmic fraction) and pellets were washed with the same buffer twice. The washed samples were extracted for 40 min on ice with fractionation buffer containing 0.5% NP-40 for nuclear fraction. All the samples were sonicated and clarified by centrifugation at 16,000 g for 15 min. Protein concentrations of all fractions were determined with Bio-Rad Protein Assay (Bio-Rad Laboratories, Hercules, Calif.). Immunoblotting was performed as described previously (21,22). Briefly, equal amounts of boiled protein samples were subjected to SDS-polyacrylamide gel electrophoresis (PAGE) and transferred onto nitrocellulose membranes (Bio-Rad Laboratories). Membranes were blocked for 1 hour in 3% BSA in Tris buffered saline containing 0.05% Tween 20 (TBST) and incubated for 1 hour with primary antibody (1:500 or 1:1000) diluted in TBST containing 1% BSA. After two washes with TBST, membranes were incubated for 1 hour with horseradish peroxidase-conjugated secondary Abs (1:3000 dilution) at room temperature. The immunoblots were visualized on film with the West-Q chemi-luminescence kit (GenDEPOT, Barker, Tex.).

This note sets out measurements from patent publication US20210267948A1, “TREATMENT OF CANCER” (CITY OF HOPE, priority 2017, published 2021).

T1 sequence (P31350 whole entry): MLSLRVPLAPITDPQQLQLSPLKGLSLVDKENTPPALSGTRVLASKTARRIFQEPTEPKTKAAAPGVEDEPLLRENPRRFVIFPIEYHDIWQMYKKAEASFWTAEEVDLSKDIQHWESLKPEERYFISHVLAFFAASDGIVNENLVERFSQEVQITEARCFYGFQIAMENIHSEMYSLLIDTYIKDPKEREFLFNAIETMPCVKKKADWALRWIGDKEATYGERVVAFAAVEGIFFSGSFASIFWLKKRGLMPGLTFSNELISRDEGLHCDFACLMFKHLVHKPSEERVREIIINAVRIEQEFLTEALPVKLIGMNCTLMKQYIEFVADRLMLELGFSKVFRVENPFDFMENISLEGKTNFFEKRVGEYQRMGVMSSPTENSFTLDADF

As to `O=C(Nc1nc(-c2ccc(O)c(O)c2)c(-c2ccccc2)s1)c1ccc(O)c(O)c1` [COH29, N-(4-(3,4-dihydroxyphenyl)-5-phenylthiazol-2-yl)-3,4-dihydroxybenzamide], the AUC in [1] is 5000 ng·h/mL. The Toxicity result in data set [2] (10 days), in data set [2] (21 days), in data set [5] (10 days) and in data set [5] (21 days) was “none” each time. The no observed adverse effect level (NOAEL) came to 84 mg/kg/day in [2] (beagle, dog, in vivo) and 250 mg/kg/day in data set [5] (Sprague-Dawley, rat, in vivo). Also, the “tumor ribonucleotide reductase activity” value in data set [3] (100 mg/kg oral, 12 days) is on record as “reduced”. The “intratumoral dNTF pools” value in [3] (oral COH29) was “decrease”. Moreover, in data set [4], the “growth of resistant cancer cells” value is given as “suppresses the growth”. For the same compound, the “lowest dose observed to inhibit growth of tumor xenografts” value in data set [6] was determined as 50 mg/kg. Also, the xenograft tumor growth result in data set [7] and in [8] was “inhibited” throughout. Moreover, the PARP1 protein level result in [9] (HCC1937 BRCA1-defective, 24 h) is on record as “attenuated PARP1 protein”; in data set [9] (HCC1937 cells irrespective of BRCA1 status, 4 h), “Little reduction”.
